The record followed here is patent publication US6313310A, “4-and 5-alkynyloxindoles and 4-and 5-alkenyloxindoles” (Hoffmann-La Roche Inc., priority 1999, dated 2001).

SMILES strings stand for the structures.

In the assay the target is rat SAPK (isoform β) (Rattus norvegicus, UniProt P49187). Nature of the assay: SAPK FlashPlate Assay (inhibition of cJun phosphorylation). In kind it is biochemical. The conditions noted are these: Table I B; for inhibition at 1 µM: Concentration <1.0 μM. How it is done: "IC50 " refers to the concentration of a particular 4- or 5-alkynyloxindole or 4- or 5-alkenyloxindole required to inhibit 50% of cJun phosphorylation, which is a measure of inhibition of SAPK activity. IC50 can be measured, inter alia, using the assay described herein in Example 102.
Human JNK is highly homologous to rat SAPK. To measure the inhibitory activity of test compounds, the compounds were tested in the rat SAPK assay.
For the SAPK assay, purified GST-cJun (a chimeric protein containing cjun, a natural substrate of JNK) was coated on 96 well FlashPlates (New England Nuclear, Boston, Mass.). Purified rat SAPK (isoform β, Kyriakis et al. supra) was preincubated with preparations containing MEKK-1 and MKK4 for 30 minutes at 37° C. in assay buffer containing 25 mM HEPES, pH 7.5, 150 mM NaCl, 20 mM MgCl2, 2 mM DTT, 0.001% Tween 20, 1 μM ATP freshly added. In the preincubation step, MEKK-1 phosphorylates and activates MKK-4, which in turn phosphorylates and activates SAPK. The activated SAPK was then added to the cJun coated FlashPlates along with ^33 P-ATP (0.32 μCi per reaction) and test compounds. The plates were incubated for 30 minutes at 37° C., then washed with PBS, 0.01% Tween 20, and counted in the Topcount scintillation counter (Packard Instrument Co., Downers Grove, Ill.). Dilutions of compounds were tested in duplicate in each assay. The percent inhibition of cJun phosphorylation (a measure of inhibition of SAPK activity) was determined by the following formula: [formula]
where "test compound" refers to the average counts per minute of the test duplicates, "nonspecific" refers to the average counts per minute when no SAPK was added, and "total" refers to the average counts per minute when no compound was added.

rat SAPK (isoform β), sequence (P49187 whole entry, canonical isoform): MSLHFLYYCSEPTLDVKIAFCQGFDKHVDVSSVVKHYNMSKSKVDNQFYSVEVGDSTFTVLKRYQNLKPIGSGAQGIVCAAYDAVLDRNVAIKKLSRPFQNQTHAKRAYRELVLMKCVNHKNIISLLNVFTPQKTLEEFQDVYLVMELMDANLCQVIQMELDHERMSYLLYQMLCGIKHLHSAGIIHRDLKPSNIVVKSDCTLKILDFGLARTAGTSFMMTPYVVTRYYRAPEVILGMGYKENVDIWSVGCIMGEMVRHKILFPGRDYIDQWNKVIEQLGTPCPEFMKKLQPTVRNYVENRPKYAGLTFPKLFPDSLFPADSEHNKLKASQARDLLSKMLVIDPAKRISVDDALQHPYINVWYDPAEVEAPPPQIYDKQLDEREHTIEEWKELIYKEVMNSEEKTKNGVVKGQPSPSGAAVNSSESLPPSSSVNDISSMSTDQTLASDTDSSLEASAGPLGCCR

Broadly, the inhibition is the share of the control response that was lost under treatment. The compound `COc1cc[nH]c1/C=C1\C(=O)Nc2cccc(C#CC(O)c3cccn3C)c21` (racemic) [AA, rac-(Z)-1,3-Dihydro-4-[3-hydroxy-3-(1-methyl-pyrrol-2-yl)-1-propynyl]-3-[(3-methoxy-1H-pyrrol-2-yl)methylene]-2H-indol-2-one] yielded an inhibition at 1 µM greater than 50%.

Turning to `COc1cc(C(O)C#Cc2cccc3c2/C(=C/c2[nH]ccc2OC)C(=O)N3)ccc1O` (racemic) [O, rac-(Z)-1,3-Dihydro-4-[3-hydroxy-3-(4-hydroxy-3-methoxyphenyl)-1-propynyl]-3-[(3-methoxy-1H-pyrrol-2-yl)methylene]-2H-indol-2-one], the inhibition at 1 µM is greater than 50%.

On to `COc1cc[nH]c1/C=C1\C(=O)Nc2ccc(NC(=O)Cc3cccs3)c(C#Cc3cccnc3)c21` [III], for which the inhibition at 0.1 µM (Concentration <0.10 μM) is less than 50%.
